Data published in patent publication US20210284618A1, “FURANOCHALCONES AS INHIBITORS OF CYP1A1, CYP1A2 AND CYP1B1 FOR CANCER CHEMOPREVENTION” (Council of Scientific & Industrial Research, priority 2016, published 2021).

Key:
[1] = molecular target: T1, CYP2C9 (Homo sapiens, UniProt P11712); test: CYP2C9 inhibition in Saccharosomes; type: biochemical; details: Saccharosomes containing CYP2C9
T1 construct: host or cells: yeast microsomes (Saccharosomes)

[2] = molecular target: T2, CYP1B1 (Homo sapiens, UniProt Q16678); test: CYP1B1 inhibition in live human cells (HEK293); type: cell-based
T2 sequence (Q16678 1-543): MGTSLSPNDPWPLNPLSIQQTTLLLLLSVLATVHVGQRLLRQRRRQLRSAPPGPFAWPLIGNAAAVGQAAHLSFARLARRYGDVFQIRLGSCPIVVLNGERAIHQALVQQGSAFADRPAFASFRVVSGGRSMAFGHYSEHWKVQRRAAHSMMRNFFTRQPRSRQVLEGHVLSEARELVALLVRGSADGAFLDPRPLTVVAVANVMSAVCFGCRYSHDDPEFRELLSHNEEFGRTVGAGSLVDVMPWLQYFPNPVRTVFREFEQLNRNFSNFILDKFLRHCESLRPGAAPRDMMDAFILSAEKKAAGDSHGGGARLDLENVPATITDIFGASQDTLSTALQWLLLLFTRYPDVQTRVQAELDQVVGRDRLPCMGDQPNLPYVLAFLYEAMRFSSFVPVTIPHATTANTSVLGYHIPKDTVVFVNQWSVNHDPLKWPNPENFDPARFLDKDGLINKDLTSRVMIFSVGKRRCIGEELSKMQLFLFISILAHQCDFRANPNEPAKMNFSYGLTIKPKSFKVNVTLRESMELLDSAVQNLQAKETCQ

[3] = molecular target: T3, CYP2C18 (Homo sapiens, UniProt P33260); test: CYP2C18 inhibition in Saccharosomes; type: biochemical; details: Saccharosomes containing CYP2C18
T3 construct: host or cells: yeast microsomes (Saccharosomes)
T3 sequence (P33260 26-490): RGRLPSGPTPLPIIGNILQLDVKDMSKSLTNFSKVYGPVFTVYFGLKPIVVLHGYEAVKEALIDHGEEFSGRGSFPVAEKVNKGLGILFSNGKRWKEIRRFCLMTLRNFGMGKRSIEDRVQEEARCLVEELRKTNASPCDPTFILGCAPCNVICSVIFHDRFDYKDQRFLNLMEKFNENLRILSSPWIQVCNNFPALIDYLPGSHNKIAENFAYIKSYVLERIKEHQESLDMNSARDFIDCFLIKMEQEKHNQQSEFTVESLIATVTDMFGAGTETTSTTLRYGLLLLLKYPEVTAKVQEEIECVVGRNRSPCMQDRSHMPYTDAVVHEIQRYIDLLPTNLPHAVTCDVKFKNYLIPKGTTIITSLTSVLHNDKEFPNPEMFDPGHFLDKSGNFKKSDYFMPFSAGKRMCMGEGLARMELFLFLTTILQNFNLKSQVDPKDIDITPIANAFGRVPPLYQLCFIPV

[4] = molecular target: T4, CYP2A6 (Homo sapiens, UniProt P11509); test: CYP2A6 inhibition in Saccharosomes; type: biochemical
T4 construct: host or cells: yeast microsomes (Saccharosomes)
T4 sequence (P11509 1-494): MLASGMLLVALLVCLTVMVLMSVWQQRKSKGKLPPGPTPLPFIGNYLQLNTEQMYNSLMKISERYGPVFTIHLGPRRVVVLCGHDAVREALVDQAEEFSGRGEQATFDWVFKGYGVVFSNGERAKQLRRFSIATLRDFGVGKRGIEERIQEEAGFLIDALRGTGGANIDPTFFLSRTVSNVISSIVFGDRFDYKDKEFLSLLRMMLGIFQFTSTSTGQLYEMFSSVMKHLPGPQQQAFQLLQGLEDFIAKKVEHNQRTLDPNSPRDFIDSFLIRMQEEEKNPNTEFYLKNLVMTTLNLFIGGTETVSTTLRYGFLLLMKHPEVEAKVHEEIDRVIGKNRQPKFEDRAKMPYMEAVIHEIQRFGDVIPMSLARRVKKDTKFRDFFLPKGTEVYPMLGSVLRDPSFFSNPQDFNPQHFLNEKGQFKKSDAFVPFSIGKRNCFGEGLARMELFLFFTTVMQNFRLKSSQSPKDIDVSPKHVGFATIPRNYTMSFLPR
Protocol: (§1) Example 25. IC50 determination for best compound against CYP1A1, CYP1B1 and other CYPs in Saccharosomes. Compounds were serially diluted to six different concentrations with 10% DMSO in a Sero-Well white microplate. The experiment was performed in a similar way as described above in examples 23 and 24.

[5] = molecular target: T5, CYP3A4 (Homo sapiens, UniProt P08684); test: CYP3A4 inhibition in Saccharosomes; type: biochemical
T5 construct: host or cells: yeast microsomes (Saccharosomes)
Protocol: as §1

[6] = molecular target: T6, CYP2B6 (Homo sapiens, UniProt P20813); test: CYP2B6 inhibition in Saccharosomes; type: biochemical; details: Saccharosomes containing CYP2B6
T6 construct: host or cells: yeast microsomes (Saccharosomes)
T6 sequence (P20813 1-491): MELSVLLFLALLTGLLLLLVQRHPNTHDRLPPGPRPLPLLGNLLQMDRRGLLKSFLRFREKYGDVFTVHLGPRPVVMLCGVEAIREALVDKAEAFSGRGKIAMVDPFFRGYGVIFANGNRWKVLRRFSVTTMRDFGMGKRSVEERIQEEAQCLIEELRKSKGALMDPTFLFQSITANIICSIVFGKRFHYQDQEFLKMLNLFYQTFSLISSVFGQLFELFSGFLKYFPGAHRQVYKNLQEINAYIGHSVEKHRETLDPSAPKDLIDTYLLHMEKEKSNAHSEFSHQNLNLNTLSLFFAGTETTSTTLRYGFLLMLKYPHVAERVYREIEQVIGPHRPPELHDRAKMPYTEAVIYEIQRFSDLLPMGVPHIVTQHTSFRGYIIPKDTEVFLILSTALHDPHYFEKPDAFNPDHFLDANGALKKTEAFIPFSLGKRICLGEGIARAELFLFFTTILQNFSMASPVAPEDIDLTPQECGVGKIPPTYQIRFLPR

[7] = molecular target: T2, CYP1B1; test: In-vitro CYP450 1B1 enzyme inhibition in Saccharosomes; type: biochemical; set-up: purchased CYP Design Ltd; host or cells: yeast microsomes (Saccharosomes)
Protocol: Example 24. In-vitro CYP450 1B1 enzyme inhibition in Saccharosomes™: Regenerating system consists of: 5 μl Solution A (183 mg of NADP++183 mg of glucose-6-phosphate+654 μl of 1.0 M magnesium chloride solution+9.15 ml of sterile ultra-pure water)+1 μl Solution B (250 Units of glucose-6-phosphate dehydrogenase+6.25 ml of 5 mM sodium citrate; mixed in a tube and made up to 10 ml with sterile ultra-pure water)+39 μl 0.2 M Kpi (0.6 ml of 1.0M K2HPO4+9.4 ml of 1.0 M KH2PO4 were mixed and made up to 50 ml with sterile ultra-pure water)+5 μl potential inhibitory compound.
as §1

[8] = molecular target: T7, CYP2C19 (Homo sapiens, UniProt P33261); test: CYP2C19 inhibition in Saccharosomes; type: biochemical; details: Saccharosomes containing CYP2C19
T7 construct: host or cells: yeast microsomes (Saccharosomes)
T7 sequence (P33261 whole entry): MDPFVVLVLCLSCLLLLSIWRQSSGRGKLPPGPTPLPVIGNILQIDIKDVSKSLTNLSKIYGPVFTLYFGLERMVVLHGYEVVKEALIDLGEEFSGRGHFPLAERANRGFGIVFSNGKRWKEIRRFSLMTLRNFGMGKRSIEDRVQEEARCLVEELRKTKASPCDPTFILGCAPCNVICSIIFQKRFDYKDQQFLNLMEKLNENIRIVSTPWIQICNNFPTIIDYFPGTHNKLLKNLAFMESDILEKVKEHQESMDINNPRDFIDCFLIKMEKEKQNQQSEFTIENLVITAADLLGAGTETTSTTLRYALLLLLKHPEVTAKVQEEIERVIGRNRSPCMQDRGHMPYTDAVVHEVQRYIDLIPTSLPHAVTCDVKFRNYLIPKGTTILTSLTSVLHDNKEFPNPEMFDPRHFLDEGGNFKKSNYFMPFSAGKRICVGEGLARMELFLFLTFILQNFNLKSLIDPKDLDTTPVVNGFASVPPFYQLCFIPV

T1 sequence (P11712 whole entry): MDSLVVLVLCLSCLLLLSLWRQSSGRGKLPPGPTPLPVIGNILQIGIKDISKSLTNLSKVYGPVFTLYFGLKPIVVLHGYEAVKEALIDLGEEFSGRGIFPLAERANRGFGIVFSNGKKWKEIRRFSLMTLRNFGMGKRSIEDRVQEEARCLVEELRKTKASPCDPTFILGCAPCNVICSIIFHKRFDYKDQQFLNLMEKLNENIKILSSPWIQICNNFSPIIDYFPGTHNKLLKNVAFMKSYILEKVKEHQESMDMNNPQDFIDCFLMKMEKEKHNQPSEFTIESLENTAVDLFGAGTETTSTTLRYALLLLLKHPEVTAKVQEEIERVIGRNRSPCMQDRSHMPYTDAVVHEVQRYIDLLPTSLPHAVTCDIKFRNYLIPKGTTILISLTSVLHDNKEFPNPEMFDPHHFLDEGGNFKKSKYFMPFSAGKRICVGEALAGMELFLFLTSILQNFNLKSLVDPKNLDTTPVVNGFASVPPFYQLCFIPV
T5 sequence (P08684 whole entry): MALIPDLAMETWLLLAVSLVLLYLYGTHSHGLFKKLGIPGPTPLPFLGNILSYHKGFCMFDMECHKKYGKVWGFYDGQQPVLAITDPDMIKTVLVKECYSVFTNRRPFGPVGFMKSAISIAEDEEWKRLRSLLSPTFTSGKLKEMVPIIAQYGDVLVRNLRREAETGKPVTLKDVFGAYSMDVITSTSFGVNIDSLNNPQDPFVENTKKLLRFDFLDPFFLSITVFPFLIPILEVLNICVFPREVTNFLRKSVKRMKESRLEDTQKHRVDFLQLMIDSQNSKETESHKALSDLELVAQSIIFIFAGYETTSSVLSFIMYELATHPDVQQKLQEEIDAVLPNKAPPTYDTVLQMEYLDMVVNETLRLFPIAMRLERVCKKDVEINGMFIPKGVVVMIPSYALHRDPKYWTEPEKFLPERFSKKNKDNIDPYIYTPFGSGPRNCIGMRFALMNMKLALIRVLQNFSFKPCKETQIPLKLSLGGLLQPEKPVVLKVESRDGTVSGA

COc1c(C(=O)/C=C/c2cccnc2)c(O)c(OC)c2occc12 [Compound 8, 3-(4,7-dimethoxy-6-hydroxybenzofuran-5-yl)-1-(pyridin-3-yl)-3-oxopropene]
inhibition at 20 µM [1]: 62%
IC50 [2]: 265 nM
inhibition at 20 µM [3]: 63%
Inhibition of CYP2A6 at 20 μM [4]: No Inhibition
IC50 [5]: 3000 nM
inhibition at 20 µM [6]: 15%
IC50 [7]: 660 nM
% inhibition of CYP1B1 in Saccharosomes at 10 μM ([7]; 10 μM test compound, 7-ethoxyresorufin, 10 µM): 80.3%
inhibition at 10 μM ([7]; human, Saccharosomes (yeast-derived) with recombinant CYP1B1, probe 7-ethoxyresorufin (5 μl of 0.1 mM), % inhibition of CYP1B1 in Saccharosomes at 10 μM, 10 μM test compound, 7-ethoxyresorufin): > 80%
inhibition at 20 µM [8]: 7%
melting point: 112 to 114 °C
